Experimental data taken from PMC6212544, “Identification and Characterization of Novel CFTR Potentiators” (Frontiers in Pharmacology, 2018).

Columns and labels:
Format in all cases: cell-based
[1] = molecular target: T1, R117H CFTR (Homo sapiens, UniProt P13569, R117H); assay: YFP halide assay, HEK293 cells expressing R117H CFTR; settings: 10 μM forskolin, VX770 = 100
T1 construct: expressed in transfected cells; host or cells: HEK293, transient (jetPEI)
Procedure: (§1) HEK293 cells were transfected with 10–80 ng of plasmid encoding G551D, G178R, G1349D, S549N, R117H, R334W, or wild type CFTR and 20 ng of plasmid encoding YFP (H148Q/I152L/F47L) using jetPEI (Polyplus transfection). Directly after transfection, cells were seeded in black 96-well plates coated with Poly-D-lysine at a density of 70,000 cells per well. The next day, cells were incubated at 27°C for 24 h, for low temperature correction. When evaluating in a chronic setting, the potentiator concentration range was also added to the cells for 24 h. After this incubation period, cells were washed twice with DPBS with Ca^2+ and Mg^2+. Subsequently, cells were treated with 10 μM forskolin and the desired concentration of potentiator in a volume of 40 μl and incubated at room temperature for 10 min, a timepoint optimized in previous experiments resulting in a good window (positive control/negative control > 2) and signal to background ratio. YFP fluorescence was measured using an EnVision plate reader (PerkinElmer). […] The excitation wavelength was 485 nm and the emission wavelength 530 nm. The capacity of potentiators to increase CFTR channel function was expressed as 1-[fluorescence 7 s after NaI addition (F)/fluorescence before NaI addition (F0)]. […]

[2] = molecular target: T2, S549N CFTR (Homo sapiens, UniProt P13569, S549N); assay: YFP halide assay, HEK293 cells expressing S549N CFTR; settings: 10 μM forskolin, VX770 = 100
T2 construct: expressed in transfected cells; host or cells: HEK293, transient (jetPEI)
T2 sequence (P13569 whole entry S549N): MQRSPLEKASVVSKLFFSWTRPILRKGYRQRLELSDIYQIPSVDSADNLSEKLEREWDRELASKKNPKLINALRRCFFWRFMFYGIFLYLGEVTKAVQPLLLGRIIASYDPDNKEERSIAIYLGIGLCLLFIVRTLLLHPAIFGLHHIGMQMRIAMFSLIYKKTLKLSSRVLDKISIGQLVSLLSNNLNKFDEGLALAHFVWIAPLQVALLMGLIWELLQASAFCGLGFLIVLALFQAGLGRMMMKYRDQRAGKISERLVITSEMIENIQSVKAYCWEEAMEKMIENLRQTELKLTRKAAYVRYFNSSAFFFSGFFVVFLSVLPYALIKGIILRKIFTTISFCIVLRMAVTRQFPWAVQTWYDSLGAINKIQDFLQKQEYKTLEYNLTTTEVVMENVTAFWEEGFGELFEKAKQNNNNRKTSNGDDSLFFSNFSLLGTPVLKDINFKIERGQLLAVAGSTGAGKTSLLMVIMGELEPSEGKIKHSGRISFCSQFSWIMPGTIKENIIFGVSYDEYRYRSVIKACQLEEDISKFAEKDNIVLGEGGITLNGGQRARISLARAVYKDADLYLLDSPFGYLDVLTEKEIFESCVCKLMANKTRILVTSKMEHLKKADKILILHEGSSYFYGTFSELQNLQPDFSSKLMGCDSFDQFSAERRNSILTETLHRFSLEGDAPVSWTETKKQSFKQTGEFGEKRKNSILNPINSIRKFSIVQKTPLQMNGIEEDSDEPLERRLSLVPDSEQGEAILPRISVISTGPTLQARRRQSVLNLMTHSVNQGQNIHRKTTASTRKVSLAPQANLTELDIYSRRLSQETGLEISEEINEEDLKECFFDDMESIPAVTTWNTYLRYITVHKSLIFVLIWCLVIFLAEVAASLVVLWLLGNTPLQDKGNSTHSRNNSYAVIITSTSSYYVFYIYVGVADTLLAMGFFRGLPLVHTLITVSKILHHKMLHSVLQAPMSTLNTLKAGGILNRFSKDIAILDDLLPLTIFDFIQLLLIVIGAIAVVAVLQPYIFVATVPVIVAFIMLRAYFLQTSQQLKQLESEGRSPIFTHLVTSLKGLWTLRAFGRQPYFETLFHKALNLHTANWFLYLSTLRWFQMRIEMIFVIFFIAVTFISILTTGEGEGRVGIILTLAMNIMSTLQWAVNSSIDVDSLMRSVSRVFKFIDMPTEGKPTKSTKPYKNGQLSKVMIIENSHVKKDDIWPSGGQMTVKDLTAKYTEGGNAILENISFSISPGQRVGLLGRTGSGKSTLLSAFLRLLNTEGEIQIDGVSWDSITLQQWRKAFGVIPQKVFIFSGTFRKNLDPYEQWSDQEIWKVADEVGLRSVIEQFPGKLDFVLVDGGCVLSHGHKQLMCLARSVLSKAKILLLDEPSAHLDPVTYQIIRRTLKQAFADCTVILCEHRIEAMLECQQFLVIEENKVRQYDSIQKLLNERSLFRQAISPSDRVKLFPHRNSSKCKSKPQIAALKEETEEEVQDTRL
Procedure: as §1

[3] = molecular target: F508del CFTR (Homo sapiens, UniProt P13569, DEL508-508); assay: YFP halide assay, CFBe41o- cells, chemically corrected F508del CFTR; settings: GLPG2222-like compound 1 μM as corrector, Supplementary Figure 2
Chain of F508del CFTR (P13569 with tags, fused parts or gaps DEL508-508): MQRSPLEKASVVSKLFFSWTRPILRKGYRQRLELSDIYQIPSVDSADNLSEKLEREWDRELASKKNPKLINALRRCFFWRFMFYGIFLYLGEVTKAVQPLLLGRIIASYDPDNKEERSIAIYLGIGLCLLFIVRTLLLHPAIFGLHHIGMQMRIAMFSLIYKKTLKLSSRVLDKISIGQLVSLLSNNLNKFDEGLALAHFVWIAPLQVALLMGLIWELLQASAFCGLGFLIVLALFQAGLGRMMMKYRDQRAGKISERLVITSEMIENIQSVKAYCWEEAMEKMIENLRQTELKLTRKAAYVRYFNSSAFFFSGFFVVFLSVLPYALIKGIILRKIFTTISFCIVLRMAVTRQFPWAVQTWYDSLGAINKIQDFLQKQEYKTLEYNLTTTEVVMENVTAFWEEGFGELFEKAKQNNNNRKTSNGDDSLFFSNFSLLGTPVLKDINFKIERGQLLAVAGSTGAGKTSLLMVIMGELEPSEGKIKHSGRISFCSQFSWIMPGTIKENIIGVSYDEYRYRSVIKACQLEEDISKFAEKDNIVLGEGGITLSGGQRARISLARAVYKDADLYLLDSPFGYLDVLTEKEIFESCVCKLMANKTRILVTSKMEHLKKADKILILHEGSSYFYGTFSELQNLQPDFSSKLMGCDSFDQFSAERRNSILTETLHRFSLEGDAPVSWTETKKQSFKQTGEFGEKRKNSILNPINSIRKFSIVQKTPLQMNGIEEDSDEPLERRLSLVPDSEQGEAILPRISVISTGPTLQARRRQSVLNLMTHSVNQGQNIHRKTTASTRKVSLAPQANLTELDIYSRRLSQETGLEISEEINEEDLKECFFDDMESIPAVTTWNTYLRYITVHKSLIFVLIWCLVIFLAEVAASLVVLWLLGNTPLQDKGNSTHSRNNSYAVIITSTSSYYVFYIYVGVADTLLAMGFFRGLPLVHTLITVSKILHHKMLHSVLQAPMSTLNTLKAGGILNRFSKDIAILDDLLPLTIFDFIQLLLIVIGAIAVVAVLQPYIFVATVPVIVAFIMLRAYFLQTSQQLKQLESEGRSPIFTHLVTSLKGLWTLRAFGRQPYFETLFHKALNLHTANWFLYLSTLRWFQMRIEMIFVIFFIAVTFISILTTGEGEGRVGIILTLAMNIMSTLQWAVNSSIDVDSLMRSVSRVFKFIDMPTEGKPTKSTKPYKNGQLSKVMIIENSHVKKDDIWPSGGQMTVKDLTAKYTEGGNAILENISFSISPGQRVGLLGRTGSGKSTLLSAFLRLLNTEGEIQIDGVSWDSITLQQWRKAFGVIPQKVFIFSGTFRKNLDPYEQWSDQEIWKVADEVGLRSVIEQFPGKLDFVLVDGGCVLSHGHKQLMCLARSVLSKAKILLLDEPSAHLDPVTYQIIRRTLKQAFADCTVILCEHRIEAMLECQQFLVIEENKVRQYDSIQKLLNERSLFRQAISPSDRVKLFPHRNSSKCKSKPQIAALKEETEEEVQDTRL
Procedure: CFBe41o- cells were plated in black 384-well microplates at a density of 1,500 cells per well. After 24 h, cells were transduced with adenoviruses containing F508del CFTR and YFP (H148Q/I152L/) F47L using a multiplicity of infection of 30 infectious units per cell for each adenovirus. The next day, for the low temperature corrected assay, cells were incubated at 27°C for 24 h, for the chemically corrected assay cells were treated with corrector for 24 h at 37°C. On the day of analysis, cells were washed five times with Dulbecco’s Phosphate-Buffered Saline (DPBS) containing Ca^2+ and Mg^2+ (Life Technologies) using a Microplate Washer (BioTek). […] The capacity of potentiators to increase CFTR channel function was expressed as 1-[fluorescence 36 s after NaI addition (F)/fluorescence before NaI addition (F0)], a timepoint optimized previously, resulting in an optimal signal window. […]
Compound activity was then tested in a more physiologically relevant system, i.e., primary bronchial epithelial cells derived from CF patients. The effect on the function of VX809 (3 μM) corrected F508del/F508del CFTR was determined using an electrophysiological readout (TECC) and the data were compared to the data generated in the YFP halide assay. […]

T1 sequence (P13569 whole entry R117H): as the sequence (P13569 whole entry S549N) above, with R117H, N549S counted along it

Row | Efficacy on R117H CFTR relative to VX770 [1] | Efficacy on S549N CFTR relative to VX770 [2] | SMILES | Potency on chemically corrected F508del CFTR (YFP halide assay) [3]
1 | 120% | 137% | CC1(C)Cc2c(sc(NC(=O)c3ccn[nH]3)c2C(N)=O)C(C)(C)O1 [GLPG1837, N-(3-Carbamoyl-5,5,7,7-tetramethyl-5,7-dihydro-4H-thieno[2,3-c]pyran-2-yl)-lH-pyrazole-5-carboxamide] | corresponded closely to the potency obtained on chemically corrected F508del HBE cells
2 | 105% | 109% | C[C@H](O)CNC(=O)c1ncc(S(=O)(=O)c2ccc(OC(F)(F)F)cc2)cc1N [GLPG2451] | corresponded closely to the potency obtained on chemically corrected F508del HBE cells
